According to patent US8501752B2, “Methods for treating cancer and other pathological proliferating disorders by inhibiting mitosis using pyrrolo[2,3-d]pyrimidines” (Duquesne University of the Holy Ghost, priority 2005, dated 2013):
Read-outs that look alike come from different tables or passages of the source.

Assays:
SK-OV-3 = experiment: NCI IVCLSP growth inhibition (SRB), SK-OV-3; format: cell-based, human; details: 48 h drug incubation
Procedure: (§1) FIG. 1 presents nine compounds that were tested using the National Cancer Institute (NCI) 60 human tumor cell lines. The cells lines, which represent leukemia, melanoma, and cancers of the lung, colon, brain, ovary, breast, prostate, and kidney, are listed in Table 1.
(§2) Compounds 1-9 were tested according to the NCI Developmental Therapeutics Program (DTP) In Vitro Cell Line Screening Project (IVCLSP). […] Methodology for testing under the IVCLSP is as follows: The human tumor cell lines of the cancer screening panel are grown in RPMI 1640 medium containing 5% fetal bovine serum and 2 mM L-glutamine. […]
(§3) Following drug addition, the plates are incubated for an additional 48 h at 37° C., 5% CO2, 95% air, and 100% relative humidity. […] Bound stain is subsequently solubilized with 10 mM trizma base, and the absorbance is read on an automated plate reader at a wavelength of 515 nm. […] Using the seven absorbance measurements [time zero, (Tz), control growth, (C), and test growth in the presence of drug at the five concentration levels (Ti)], the percentage growth is calculated at each of the drug concentrations levels. Percentage growth inhibition is calculated as: [(Ti−Tz)/(C−Tz)]×100 for concentrations for which Ti>/=Tz [(Ti−Tz)/Tz]×100 for concentrations for which Ti<Tz.
(§4) Three dose response parameters are calculated for each experimental agent. […]

[1] = test system: HL-60 human promyelocytic leukemia cells; experiment: Flow cytometric cell cycle phase distribution; format: cell-based; details: 24 hours treatment
Procedure: Flow cytometric analyses were used to assess the effects of Compound 1 and various antimicrotubule drugs on the cell cycle phase distributions of HL-60 human promyelocytic leukemia cells. The percentage of cells in the G2/M phases were increased approximately 2-fold by treatment of the cells for 24 hours with either TAXOL (paclitaxel), vinblastine, colchicine, or Compound 1.

CCRF-CEM = experiment: NCI IVCLSP growth inhibition (SRB), CCRF-CEM; format: cell-based, human; details: 48 h drug incubation
Procedure: as §1, §2, §3, §4

NCI/ADR-RES = experiment: NCI IVCLSP growth inhibition (SRB), NCI/ADR-RES; format: cell-based, human; details: 48 h drug incubation
Procedure: as §1, §2, §3, §4

U251 = experiment: NCI IVCLSP growth inhibition (SRB), U251; format: cell-based, human; details: 48 h drug incubation
Procedure: as §1, §2, §3, §4

[2] = test system: T24 human bladder carcinoma cells; experiment: Cytotoxicity, T24 cells; format: cell-based; details: mean ± SEM for 3 experiments
MCF7 = experiment: NCI IVCLSP growth inhibition (SRB), MCF7; format: cell-based, human; details: 48 h drug incubation
Procedure: as §1, §2, §3, §4

NCI-H460 = experiment: NCI IVCLSP growth inhibition (SRB), NCI-H460; format: cell-based, human; details: 48 h drug incubation
Procedure: as §1, §2, §3, §4

SK-MEL-5 = experiment: NCI IVCLSP growth inhibition (SRB), SK-MEL-5; format: cell-based, human; details: 48 h drug incubation
Procedure: as §1, §2, §3, §4

WAF1 = experiment: Western blot, WAF1 expression in MCF-7 cells; format: cell-based, human; details: 24 hours, various concentrations
Procedure: To further characterize the cell cycle effects of Compound 1 on human tumor cells, MCF-7 cells were treated for 24 hours with various concentrations of Compound 1, vinblastine, or TAXOL (paclitaxel). Cells were then harvested, lysed, and analyzed for levels of expression of p53 and WAF1 by Western Blot analyses. […] Compound 1 is identified as “149” in these figures. […] None of these treatments affected the expression of bcl-2 or P-tubulin in the MCF-7 cells.

A549/ATCC = experiment: NCI IVCLSP growth inhibition (SRB), A549/ATCC; format: cell-based, human; details: 48 h drug incubation
Procedure: as §1, §2, §3, §4

NCI/ADR cells = experiment: Cytotoxicity, NCI/ADR cells that overexpress P-glycoprotein; details: for IC50: mean ± SEM for 3 experiments
Text: These cell lines are resistant to anticancer drugs due to overexpression of the transport proteins P-glycoprotein or MRP1.

OVCAR-4 = experiment: NCI IVCLSP growth inhibition (SRB), OVCAR-4; format: cell-based, human; details: 48 h drug incubation
Procedure: as §1, §2, §3, §4

CAKI-1 = experiment: NCI IVCLSP growth inhibition (SRB), CAKI-1; format: cell-based, human; details: 48 h drug incubation
Procedure: as §1, §2, §3, §4

SF-295 = experiment: NCI IVCLSP growth inhibition (SRB), SF-295; format: cell-based, human; details: 48 h drug incubation
Procedure: as §1, §2, §3, §4

HCT-116 = experiment: NCI IVCLSP growth inhibition (SRB), HCT-116; format: cell-based, human; details: 48 h drug incubation
Procedure: as §1, §2, §3, §4

NCI-H522 = experiment: NCI IVCLSP growth inhibition (SRB), NCI-H522; format: cell-based, human; details: 48 h drug incubation
Procedure: as §1, §2, §3, §4

RPM1-8226 = experiment: NCI IVCLSP growth inhibition (SRB), RPM1-8226; format: cell-based, human; details: 48 h drug incubation
Procedure: as §1, §2, §3, §4

UACC-62 = experiment: NCI IVCLSP growth inhibition (SRB), UACC-62; format: cell-based, human; details: 48 h drug incubation
Procedure: as §1, §2, §3, §4

COc1cc(CCc2cn(Cc3ccccc3)c3nc(N)nc(C)c23)cc(OC)c1OC [Compound 1]
GI50 (SK-OV-3): 0.506 µM | increase of the percentage of cells in the G2/M phases ([1]; HL-60): approximately 2 fold | cell cycle distribution, G2/M ([1]; percentage of HL-60 cells): 9.7 ± 0.4 | cell cycle distribution, G9/G1 ([1]; percentage of HL-60 cells): 80.0 ± 2.4 | cell cycle distribution, S ([1]; percentage of HL-60 cells): 10.3 ± 2.0 | GI50 (CCRF-CEM): 0.058 µM | GI50 (NCI/ADR-RES): 0.145 µM | GI50 (U251): 0.144 µM | IC50 [2]: 0.28 ± 0.1 µM | GI50 (MCF7): 0.118 µM | GI50 (NCI-H460): 0.162 µM | GI50 (SK-MEL-5): 0.0611 µM | level of expression of WAF1 (in words) (WAF1): induced the expression | GI50 (A549/ATCC): 0.173 µM | Resistance (NCI/ADR relative to MCF-7) (NCI/ADR cells; P-glycoprotein): 1.3 | IC50 (NCI/ADR cells; read-out: Cytotoxicity IC50, NCI/ADR): 0.25 ± 0.12 µM | IC50 (NCI/ADR cells; read-out: drug sensitivity (IC50), NCI/ADR, Table 4, P-glycoprotein overexpressing): 0.35 ± 0.04 µM | GI50 (OVCAR-4): 0.821 µM | GI50 (CAKI-1): 0.366 µM | GI50 (SF-295): 0.0418 µM | GI50 (HCT-116): 0.286 µM | GI50 (NCI-H522): 0.0477 µM | GI50 (RPM1-8226): 0.439 µM | GI50 (UACC-62): 0.0399 µM
